Test results taken from patent US20040138169A1, “Composition and use of substances for stabilising amino acids containing sulphur” (priority 2001, published 2004).
Entries after “also recorded” stand apart in the source; their conditions may differ.

Legend:
[1] = tested on: homocysteine level in blood; details: cited from earlier work
[2] = tested on: HCY-concentration in whole blood; experiment: Stabilization of the homocysteine (HCY) concentration in withdrawn whole blood stored in monovettes with stabilizer; assay type: cell-based; details: room temperature; for HCY-SD (duration of stabilization): whole blood in EDTA- or Na-heparin-monovettes with stabilizer (amount per ml blood); for stabilization of homocysteine (duration): whole blood
Procedure: (§1) Material Used and Processes
(§2) The following inhibitors of methyl transferase or S-adenosylhomocysteine hydrolase have been tested
(§3) The effectiveness of the inhibitors have been tested in combination with the following acids:
(§4) The compositions of further reagents have been:
(§5) Mixture A: 5(4)-AMCA (5.2 mg) and DEOA (3.2 mg), dissolved in 500 μl phosphate buffer.
(§6) Composition of the buffer for mixture A:
(§7) All other substances have been dissolved in water.
(§8) Blood Withdrawal and Treatment of Samples
(§9) Corresponding amounts of stabilizers have been provided in EDTA- or Na-heparin-monovettes for each Example or Comparative Example (see Table 1). The blood withdrawal has been carried out in monovettes with and without stabilizers. For the control value, the monovettes have been centrifuged within 30 minutes after withdrawal.

[3] = tested on: sulphur-containing amino acids (HCY, CYS, CYSGLY, GLU) in whole blood; experiment: Stabilization of sulphur-containing amino acids (HCY, CYS, CYSGLY, GLU) together in whole blood samples; assay type: cell-based; details: substance used alone, samples at room temperature
Procedure: as §1, §2, §3, §4, §5, §6, §7, §8, §9

[4] = tested on: concentration of cysteine (CYS) in whole blood; experiment: Stabilization of the cysteine (CYS) concentration in withdrawn whole blood stored in monovettes with stabilizer; assay type: cell-based; details: whole blood in EDTA- or Na-heparin-monovettes with stabilizer (amount per ml blood), room temperature
Procedure: as §1, §2, §3, §4, §5, §6, §7, §8, §9

[5] = tested on: concentration of cysteinyl glycine (CYSGLY) in whole blood; experiment: Stabilization of the cysteinyl glycine (CYSGLY) concentration in withdrawn whole blood stored in monovettes with stabilizer; assay type: cell-based
Procedure: as §1, §2, §3, §4, §5, §6, §7, §8, §9

[6] = tested on: concentration of glutathione (GLU) in whole blood; experiment: Stabilization of the glutathione (GLU) concentration in withdrawn whole blood stored in monovettes with stabilizer; assay type: cell-based
Procedure: as §1, §2, §3, §4, §5, §6, §7, §8, §9

[7] = Storage stability of the reagent; assay type: physicochemical; details: can be stored only in cooled state (+4° C.)
Procedure: A problem which occurs when using 3-deazaadenosine resides in that noticable variations of the measured values occur, lying in the range of up to 2 μmol/l in 60 hours with homocysteine and in the range of up to 60 μmol/l in 60 hours with cysteine. […] A further problem resides in that 3-deazaadenosine is not stable at room temperature and can be stored only in cooled state (+4° C.), which limits also its shipment capabilities. However, a simple handling of the reagents is of great importance in the diagnostic medicine, because for example withdrawn blood must be present in an unmodified form and transportable over an extended period without larger expenditure like, for example, cooling.

Structure (SMILES)	HCY-SD (duration of stabilization) [2] [h]	stabilization of the sulphur-containing amino acids (in words) [3]	CYS-SD (duration of stabilization) [4] [h]	further results
[F-].[Na+] [NaF]				change of the homocysteine level in blood samples (in words) ([1]; in comparison with the initial value at the time of withdrawing the blood): no increase; also recorded: decrease
Nc1nccc2c1ncn2[C@@H]1C=C(CO)[C@@H](O)[C@H]1O [Ex. 14, 3-deazaneplanocin A]	143			stabilization of homocysteine (duration) [2]: at least 143 hours; stabilization of homocysteine (duration) ([2]; listed as 3DA-NeplA): 143 h
O=C(O)CN(CCN(CC(=O)O)CC(=O)O)CC(=O)O [Na-EDTA, ethylenediamine tetraacetic acid]		no stabilization		
Nc1nccc2c1ncn2[C@@H]1O[C@H](CO)[C@@H](O)[C@H]1O [Cmp.-Ex. 1, 3-deazaadenosin]	56		56	inhibition of the formation of cysteinyl glycine (in words) [5]: does not inhibit; inhibition of the formation of glutathione (in words) [6]: does not inhibit; stability of the reagent at room temperature (in words) [7]: not stable; increase of the homocysteine level ([1]; 72 hours after the blood withdrawal): about 10%; time over which the reaction from S-adenosylhomocysteine to homocysteine is effectively inhibited ([1]; blood samples): up to 72 hours; time without increase of the homocysteine level in blood ([1]; blood samples): up to 24 hours
Nc1ncnc2c1ncn2[C@@H]1C=C(CO)[C@@H](O)[C@H]1O [Ex. 13, neplanocin A]	70			
O=C1O[C@H]([C@@H](O)CO)C(O)=C1O [Cmp.-Ex. 2, ascorbic acid]	73		73	CYSGLY-SD (duration of stabilization) ([5]; whole blood in EDTA- or Na-heparin-monovettes with stabilizer (amount per ml blood), room temperature): 73 h
O=C(O)CC(O)(CC(=O)O)C(=O)O [citric acid]		no stabilization		
Nc1ncnc2c1ncn2[C@H]1C[C@H](O)[C@@H](CO)O1 [2′-deoxyadenosin]		no significant stabilization		
NC(=O)c1nc[nH]c1N [5(4)-aminoimidazol-4(5)-carboxamid, 5(4)-aminoimidazol-4(5)-carboxamide]		no significant stabilization		
O=C(O)/C=C/C(=O)O [Cmp.-Ex. 3, fumaric acid]	47		47	
